Data: USRE48097E1, “Cephem compounds, their production and use” (priority 2015, dated 2020)
Values after ≈ are worked out from the molar mass of the structure shown. Where two headings read alike, the source gives them in different places. One block for each compound: values may come before it.

Tests used:
E. coli 2666 = assay: MIC against E. coli 2666; type: cell-based; conditions: Table 3, E. coli 2666, KPC-2
Protocol: (§1) As shown, the foregoing composition was tested for minimum inhibitory concentration (MIC, μg/mL) against bacteria listed in Tables 2-3.

E. cloacae 551 = assay: MIC against E. cloacae 551; type: cell-based; conditions: Table 2, E. cloacae 551, Caz R, IMP S
Excerpt: (§2) Without limitation, the present cephem compounds alone, or in combination with one or more β-lactamase inhibitors, may provide improved antibacterial efficacy, particularly in antibiotic-resistant bacterial strains. It is believed that the present compounds may be structurally different from known compounds and, as a result, may be more basic in nature. It is an advantage that the present compounds may extend the spectrum of effective bacterial compounds, particularly against previously-resistant bacteria (e.g. ESKAPE organisms), and/or gram negative bacteria, without significant side effects. In a preferred embodiment, the present cephem compound may comprise reference compound ceftazidime, which may be used alone, or in combination with one or more β-lactamase inhibitors, such as NXL-104. As shown, the foregoing composition was tested for minimum inhibitory concentration (MIC, μg/mL) against bacteria listed in Tables 2-3.

E. cloacae 552 = assay: MIC against E. cloacae 552; type: cell-based; conditions: Table 2, E. cloacae 552, Caz S, IMP S
Excerpt: as §2

K. baumanii 4094 = assay: MIC against K. baumanii 4094; type: cell-based; conditions: Table 2, K. baumanii 4094, OXA-51
Excerpt: as §2

P. aeruginosa 2573 = assay: MIC against P. aeruginosa 2573; type: cell-based; conditions: Table 2, P. aeruginosa 2573, OXA-10 (Class D)
Excerpt: as §2

E. coli 2668 = assay: MIC against E. coli 2668; type: cell-based; conditions: Table 2, E. coli 2668, OXA-48
Excerpt: as §2

S. pneumoniae 2493 = assay: MIC against S. pneumoniae 2493; type: cell-based; conditions: Table 2, S. pneumoniae 2493, Pen R
Excerpt: as §2

K. pneumoniae 2690 = assay: MIC against K. pneumoniae 2690; type: cell-based; conditions: Table 3, K. pneumoniae 2690, KPC-2
Protocol: as §1

P. aeruginosa 2686 = assay: MIC against P. aeruginosa 2686; type: cell-based; conditions: Table 3, P. aeruginosa 2686, KPC-2
Protocol: as §1

S. aureus3137 = assay: MIC against S. aureus3137; type: cell-based, S. aureus; conditions: Table 2, S. aureus3137, MSSA
Excerpt: as §2

E. cloacae 2704 = assay: MIC against E. cloacae 2704; type: cell-based; conditions: Table 2, E. cloacae 2704, P99
Excerpt: as §2

S. pneumoniae 2405 = assay: MIC against S. pneumoniae 2405; type: cell-based; conditions: Table 2, S. pneumoniae 2405, Pen S
Excerpt: as §2

S. pneumoniae 2406 = assay: MIC against S. pneumoniae 2406; type: cell-based; conditions: Table 2, S. pneumoniae 2406, Pen S
Excerpt: as §2

K. baumanii 2579 = assay: MIC against K. baumanii 2579; type: cell-based; conditions: Table 2, K. baumanii 2579, OXA-25
Excerpt: as §2

C. freundii 15 = assay: MIC against C. freundii 15; type: cell-based; conditions: Table 2, C. freundii 15, Caz R, IMP S
Excerpt: as §2

S. aureus 3132 = assay: MIC against S. aureus 3132; type: cell-based; conditions: Table 2, S. aureus 3132, MSSA
Excerpt: as §2

K. baumanii 4095 = assay: MIC against K. baumanii 4095; type: cell-based; conditions: Table 2, K. baumanii 4095, OXA-48
Excerpt: as §2

E. cloacae 2705 = assay: MIC against E. cloacae 2705; type: cell-based; conditions: Table 3, E. cloacae 2705, VIM-1, KPC-3type
Protocol: as §1

E. cloacae 2710 = assay: MIC against E. cloacae 2710; type: cell-based; conditions: Table 3, E. cloacae 2710, KPC-3, VIM-1
Protocol: as §1

S. pneumoniae ATCC 6301 = assay: MIC against S. pneumoniae ATCC 6301; type: cell-based; conditions: Table 2, S. pneumoniae ATCC 6301, Pen S
Excerpt: as §2

S. pneumoniae 2389 = assay: MIC against S. pneumoniae 2389; type: cell-based; conditions: Table 2, S. pneumoniae 2389, Pen R
Excerpt: as §2

S. aureus 3147 = assay: MIC against S. aureus 3147; type: cell-based; conditions: Table 2, S. aureus 3147, MSSA
Excerpt: as §2

[1] = tested on: S. pneumoniae ATCC 700673; assay: MIC against S. pneumoniae ATCC 700673; type: cell-based; conditions: Table 2, S. pneumoniae ATCC 700673, Pen R
Excerpt: as §2

K. pneumoniae 4088 = assay: MIC against K. pneumoniae 4088; type: cell-based; conditions: Table 3, K. pneumoniae 4088, KPC-3
Protocol: as §1

[2] = Escherichia coli, alone, read-out: MIC
[3] = Enterobacter cloacae, alone, read-out: MIC
[4] = Pseudomonas aeruginosa, alone, read-out: MIC
[5] = Streptococcus pneumoniae, alone, read-out: MIC
[6] = Klebsiella pneumoniae, alone, read-out: MIC
[7] = Staphylococcus aureus, alone, read-out: MIC

MIC (E. coli 2666; [2]): 32 µg/mL (≈ 45.1 µM) | MIC (E. coli 2666; in combination with NXL-104): 2 µg/mL | MIC (E. cloacae 551; [3]): 8 µg/mL | MIC (E. cloacae 551; in combination with NXL-104): 1.00 µg/mL | MIC (E. cloacae 552; [3]): 0.12 µg/mL | MIC (E. cloacae 552; in combination with NXL-104): 0.12 µg/mL | MIC (K. baumanii 4094; alone, read-out: MIC): 32 µg/mL | MIC (K. baumanii 4094; in combination with NXL-104): 8.00 µg/mL | MIC (P. aeruginosa 2573; [4]): 2 µg/mL | MIC (P. aeruginosa 2573; in combination with NXL-104): 4.00 µg/mL | MIC (E. coli 2668; [2]): 0.5 µg/mL | MIC (E. coli 2668; in combination with NXL-104): 0.25 µg/mL | MIC (S. pneumoniae 2493; [5]): 8 µg/mL | MIC (S. pneumoniae 2493; in combination with NXL-104): 8.00 µg/mL | MIC (K. pneumoniae 2690; [6]): 32 µg/mL (≈ 45.1 µM) | MIC (K. pneumoniae 2690; in combination with NXL-104): 2 µg/mL | MIC (P. aeruginosa 2686; [4]): > 32 µg/mL | MIC (P. aeruginosa 2686; in combination with NXL-104): 16 µg/mL | MIC (S. aureus3137; [7]): 32 µg/mL | MIC (S. aureus3137; in combination with NXL-104): 32.00 µg/mL | MIC (E. cloacae 2704; [3]): 4 µg/mL | MIC (E. cloacae 2704; in combination with NXL-104): 1.00 µg/mL | MIC (S. pneumoniae 2405; [5]): 0.12 µg/mL | MIC (S. pneumoniae 2405; in combination with NXL-104): ≤0.06 µg/mL | MIC (S. pneumoniae 2406; [5]): ≤ 0.06 µg/mL | MIC (S. pneumoniae 2406; in combination with NXL-104): ≤0.06 µg/mL | MIC (K. baumanii 2579; alone, read-out: MIC): > 32 µg/mL | MIC (K. baumanii 2579; in combination with NXL-104): 32.00 µg/mL | MIC (C. freundii 15; Citrobacter freundii, alone, read-out: MIC): 4 µg/mL | MIC (C. freundii 15; in combination with NXL-104): 0.50 µg/mL | MIC (S. aureus 3132; [7]): 2 µg/mL | MIC (S. aureus 3132; in combination with NXL-104): 2.00 µg/mL | MIC (K. baumanii 4095; alone, read-out: MIC): 0.25 µg/mL | MIC (K. baumanii 4095; in combination with NXL-104): 0.25 µg/mL | MIC (E. cloacae 2705; [3]): > 32 µg/mL | MIC (E. cloacae 2705; in combination with NXL-104): >32 µg/mL | MIC (E. cloacae 2710; [3]): > 32 µg/mL | MIC (E. cloacae 2710; in combination with NXL-104): >32 µg/mL | MIC (S. pneumoniae ATCC 6301; Streptococcus pneumoniae, ATCC6301, alone, read-out: MIC): ≤ 0.06 µg/mL | MIC (S. pneumoniae ATCC 6301; in combination with NXL-104): ≤0.06 µg/mL | MIC (S. pneumoniae 2389; [5]): 8 µg/mL | MIC (S. pneumoniae 2389; in combination with NXL-104): 8.00 µg/mL | MIC (S. aureus 3147; [7]): 2 µg/mL | MIC (S. aureus 3147; in combination with NXL-104): 2.00 µg/mL | MIC ([1]; Streptococcus pneumoniae, ATCC700673, alone, read-out: MIC): 8 µg/mL | MIC ([1]; in combination with NXL-104): 8.00 µg/mL | MIC (K. pneumoniae 4088; [6]): > 32 µg/mL | MIC (K. pneumoniae 4088; in combination with NXL-104): 4 µg/mL
SMILES: CC(C)(O/N=C(\C(=O)N[C@@H]1C(=O)N2C(C(=O)[O-])=C(C[n+]3ccc4n3CCN4Cc3ccc(C(=N)N)cc3)CS[C@H]12)c1csc(N)n1)C(=O)O [Example 2, (6R,7R)-7-{[(2Z)-2-(2-Amino-1,3-thiazol-4-yl)-2-{[(2-carboxypropan-2-yl)oxy]imino}acetyl]amino}-3-{[1-(4-carbamimidoylbenzyl)-2,3-dihydro-1H-imidazo[1,2-b]pyrazol-5-ium-5-yl]methyl}-8-oxo-5-thia-1-azabicyclo[4.2.0]oct-2-ene-2-carboxylate]

MIC (E. coli 2666; alone): >32 µg/mL | MIC (E. coli 2666; in combination with NXL-104): 4 µg/mL | MIC (E. cloacae 551; alone): 16.00 µg/mL | MIC (E. cloacae 551; in combination with NXL-104): 4.00 µg/mL | MIC (E. cloacae 552; alone): 0.50 µg/mL | MIC (E. cloacae 552; in combination with NXL-104): 0.25 µg/mL | MIC (K. baumanii 4094; alone): >32 µg/mL | MIC (K. baumanii 4094; in combination with NXL-104): 32.00 µg/mL | MIC (P. aeruginosa 2573; alone): 8.00 µg/mL | MIC (P. aeruginosa 2573; in combination with NXL-104): 8.00 µg/mL | MIC (E. coli 2668; alone): 1.00 µg/mL | MIC (E. coli 2668; in combination with NXL-104): 0.50 µg/mL | MIC (S. pneumoniae 2493; alone): 16.00 µg/mL | MIC (S. pneumoniae 2493; in combination with NXL-104): 16.00 µg/mL | MIC (K. pneumoniae 2690; alone): >32 µg/mL | MIC (K. pneumoniae 2690; in combination with NXL-104): 4 µg/mL | MIC (P. aeruginosa 2686; alone): >32 µg/mL | MIC (P. aeruginosa 2686; in combination with NXL-104): 16 µg/mL | MIC (S. aureus3137; alone): 32.00 µg/mL | MIC (S. aureus3137; in combination with NXL-104): 32.00 µg/mL | MIC (E. cloacae 2704; alone): 16.00 µg/mL | MIC (E. cloacae 2704; in combination with NXL-104): 4.00 µg/mL | MIC (S. pneumoniae 2405; alone): 0.25 µg/mL | MIC (S. pneumoniae 2405; in combination with NXL-104): 0.25 µg/mL | MIC (S. pneumoniae 2406; alone): 0.12 µg/mL | MIC (S. pneumoniae 2406; in combination with NXL-104): 0.12 µg/mL | MIC (K. baumanii 2579; alone): >32 µg/mL | MIC (K. baumanii 2579; in combination with NXL-104): >32 µg/mL | MIC (C. freundii 15; alone): 8.00 µg/mL | MIC (C. freundii 15; in combination with NXL-104): 2.00 µg/mL | MIC (S. aureus 3132; alone): 8.00 µg/mL | MIC (S. aureus 3132; in combination with NXL-104): 8.00 µg/mL | MIC (K. baumanii 4095; alone): 0.50 µg/mL | MIC (K. baumanii 4095; in combination with NXL-104): 0.50 µg/mL | MIC (E. cloacae 2705; alone): >32 µg/mL | MIC (E. cloacae 2705; in combination with NXL-104): >32 µg/mL | MIC (E. cloacae 2710; alone): >32 µg/mL | MIC (E. cloacae 2710; in combination with NXL-104): >32 µg/mL | MIC (S. pneumoniae ATCC 6301; alone): 0.12 µg/mL | MIC (S. pneumoniae ATCC 6301; in combination with NXL-104): 0.12 µg/mL | MIC (S. pneumoniae 2389; alone): 16.00 µg/mL | MIC (S. pneumoniae 2389; in combination with NXL-104): 16.00 µg/mL | MIC (S. aureus 3147; alone): 8.00 µg/mL | MIC (S. aureus 3147; in combination with NXL-104): 8.00 µg/mL | MIC ([1]; alone): 16.00 µg/mL | MIC ([1]; in combination with NXL-104): 8.00 µg/mL | MIC (K. pneumoniae 4088; alone): >32 µg/mL | MIC (K. pneumoniae 4088; in combination with NXL-104): 8 µg/mL
SMILES: CC(C)(O/N=C(\C(=O)N[C@@H]1C(=O)N2C(C(=O)[O-])=C(C[n+]3ccccc3)CS[C@H]12)c1csc(N)n1)C(=O)O [CAZ, ceftazidime, reference compound]
